Laboratory results reported in US20040013649A1, “Cancer vaccines and methods of using the same” (Inex Pharmaceuticals Corporation, priority 2002, published 2004).
“Also recorded” adds a separate entry of the source. [5mC] = 5-methylcytosine

Columns and labels:
B16 cell target = experiment: CTL response to B16 cell target after multiple epitope immunization; format: in vivo, C57BL/6 mice; details: encapsulated PS-ODN 1m (POPC:Chol:DODMA:PEG-DMG) with TRP2 and Gp100 peptides or B16 lysate; 3 injections
Description: Targeting multiple antigens and MHC alleles might be achieved by using multiple recombinant antigen mixtures of synthetic peptide epitopes. To improve the immune response against these multi-epitope antigens several adjuvants are under assay. This experiment employs encapsulated PS-ODN 1 m using POPC:Chol:DODMA:PEG-DMG (25:45:20:10 molar ratio) in combination with two murine melanoma antigens TRP2 (H2Kb, […]) and Gp100 (H2Db, […]). C57BL/6 mice were injected 3 times with either each antigen, or both, in the presence of encapsulated PS-ODN 1 m. As positive control we used dendritic cells known to be potent in inducing CTL responses. B16 lysate containing multiple epitopes was also assayed either with ODN1m or DC for the ability to induce multi-epitope immunity. Immune response was assessed by the ability of CD8+ T cells to mediate cytotoxicity against tumor cells in an antigen-specific manner.

B16/BL6 murine melanoma = experiment: therapeutic anti-tumor efficacy, B-16 melanoma tumor model; format: in vivo, C57BI/6 mice; details: lipid encapsulated (DSPC:CHOL:DODAP:PEGCer14); 20 mg/kg ODN i.v. every other day from day 4
Description: Anti-tumor efficacy induced by intravenous tail immunization was assessed in C57BI/6 (8 animals per group) in a therapeutic immunization model. Animals were challenged with a subcutaneous injection of 3.0×10^5 […] B16/BL6 murine melanoma expressing tumor cells on Day-0. Mice were then treated intravenously every other day starting on day 4 for 14 days at a dose of 20 mg/kg ODN. Mice were monitored every other day to assess tumor growth and weight gain. Control mice were injected with HBS on the same schedule described above. Oligonucleotides were encapsulated in a lipid particle having a lipid composition of DSPC: CHOL: DODAP:PEGCer14 each in a ratio of 25:45:20:10. Results from this efficacy experiments are detailed in FIGS. 16 and 17. Day 0 on each of the Figures is the day each animal was challenged with the tumor.

dendritic cells = experiment: activation of dendritic cells (CD86 co-expression); format: in vivo, ICR mice; details: lipid encapsulated, single i.v. injection 20 mg/kg, versus PBS control = 100%
Description: ICR mice were immunized with a single intravenous injection of encapsulated oligonucleotides at a dose of 20 mg/kg and the control ICR mouse was injected with PBS. […] Each of these markers are specific to dendritic cells though they may represent different cell sub-populations. In each of FIGS. 4 and 5 the control was plotted as equivalent to 100% and the effect of ODN1m for each backbone configuration was plotted as a percentage of that control.
On collection of the samples the cells were first analyzed by flow cytometry for the co-expression of CD86, which indicates cell activation, and the dendritic cell phenotype markers CD11c and DEC205. The percentage of activated dendritic cells was plotted against a PBS control equivalent to 100%. […] Similar results are shown when measuring DEC205 positive dendritic cells in FIG. 5 panels.

[1] = test system: dendritic cells, NK cells, and CD8+ T-cells; experiment: cytokine release assay after subcutaneous immunization; format: in vivo, C57BI/6 mice; details: lipid encapsulated; 100 μg ODN + 20 μg antigen s.c. q7d×3; FIGS. 10 and 11
Description: To monitor immunological response to subcutaneous immunization, antigen specific cellular immune responses were monitored using MHC Class.l-tetramer analyses, cytotoxicity assays and cytokine release assays while humoral immune responses were monitored by measuring plasma antibody levels. Cellular and humoral responses were assessed in C57BI/6 and Balb/C mice respectively (5 animals per group). For analysis of the cellular response, mice were immunized subcutaneously with 3 injections on a q7d×3 dosing regimen on Days 0, 7 and 14 at a dose of 100 μg oligonucleotide in combination with 20 μg of antigen . The spleen, liver, lymph node and blood tissues were collected on Day 21. Solid tissues were mechanically dissociated and cells were processed to collect mononuclear cells. […]
The aim of the cytokine release assay is to detect antigen-specific immune effector cells that are activated to produce and secrete cytokines, specifically IFN-γ, in response to stimulation with a specific antigen. Cells were isolated from the spleen, liver, blood and lymph nodes of immunized animals and analyzed using the Cytokine Secretion Assay (Miltenyi Biotec). […] Cells were then labeled with fluorescently labeled antibodies against IFN-γ and various phenotype markers and analyzed by flow cytometry to allow detection of specific cell types that were activated to secrete IFN-γ. […]

ODN1m: 5′-TAAZGTTGAGGGGCAT-3, SEQ ID NO: 4, Z = methylated cytosine (DNA TAACGTTGAGGGGCAT; DNA, [5mC] at 4, backbone not given here; tested with both phosphodiester and phosphorothioate backbones)
CTL response (B16 cell target): a CTL response was raised against both antigens | reduction of tumor volume (B16/BL6 murine melanoma): increased its efficacy in reducing tumor volume | CD86 expression on dendritic cells (dendritic cells): induced CD86 expression on CD11c positive dendritic cells; also recorded: more active than the unmethylated counterpart ODN1 | immune stimulation (cytokine secretion of dendritic cells, NK cells, CD8+ T-cells), methylated normalized to unmethylated ODN [1]: consistently at least equivalent to, and often better than
